# Where a name gives a salt, the structure may show the parent alone.
# Experiments:
# [1] = target: PI 3-kinase gamma (Homo sapiens (Human), UniProt P48736)
# [2] = target: mTOR (Homo sapiens (Human), UniProt P42345); conditions: read-out: Assay G mTOR IC50
# [3] = target: PI 3-kinase beta (Homo sapiens (Human), UniProt P42338); conditions: read-out: Assay B PI3Kβ IC50
# [4] = target: Vps34 (Homo sapiens (Human), UniProt Q8NEB9); conditions: read-out: Assay C VPS34 IC50
# [5] = target: PI 4-kinase beta (Homo sapiens (Human), UniProt Q9UBF8); conditions: read-out: Assay D PI4Kβ IC50
# [6] = target: PI 3-kinase alpha (Homo sapiens (Human), UniProt P42336); conditions: read-out: Assay A PI3Kα IC50
# [7] = target: PI 3-kinase beta (Rat-1 pBABEpuro Myr-HA-hp110 beta cells) (Homo sapiens (Human), UniProt P42338); test: cell-based; conditions: Assay I PI3Kβ IC50
# Text: Cellular Assays for PI 3-Kinase Alpha (H1), Beta (I1) and Delta (J1): Surefire Format
# The brand name SureFire denotes AlphaScreen assays that are adapted to quantify the phosphorylation of endogenous cellular proteins in cell lysates, by using matched antibody pairs, which consist of an anti-phospho-kinase and an anti-kinase antibody. The assay allows characterization of kinase signaling in cells as well as measurement of kinase inhibitor effects.
# The p-Akt (S473) SureFire assay measures the phosphorylation of endogenous cellular Akt 1/2 at Ser473 in cell lysates. Using Rat-1 cells stably expressing myr-HA-tagged versions of the human PI3Kdelta, PI3Kalpha, or PI3Kbeta p110 catalytic subunit isoforms, the assay was developed as a two-plate protocol in a 384-well format.
# For compound testing, the cells were seeded at a density of 4000 (Rat-1_PI3Kdelta), 7500 (Rat-1_PI3Kalpha), or 6200 (Rat-1_PI3Kbeta) cells in 20 μl complete growth medium into cell culture treated 384-well plates and were grown at 37° C./5% CO2/90% humidity for 24 h. Shortly before compound transfer, the complete medium was removed, 30 μl assay buffer (DMEM high glucose, 1×MEM NEAA, 10 mM HEPES, 2 mM L-glutamine, 0.1% (w/v) BSA) was added and 10 μl of the compound predilutions were transferred to the cells. […]
# [8] = target: PI 3-kinase delta (Homo sapiens (Human), UniProt O00329); conditions: read-out: Assay F PI3Kδ IC50
# PI 3-kinase alpha, sequence (P42336 whole entry, looked up): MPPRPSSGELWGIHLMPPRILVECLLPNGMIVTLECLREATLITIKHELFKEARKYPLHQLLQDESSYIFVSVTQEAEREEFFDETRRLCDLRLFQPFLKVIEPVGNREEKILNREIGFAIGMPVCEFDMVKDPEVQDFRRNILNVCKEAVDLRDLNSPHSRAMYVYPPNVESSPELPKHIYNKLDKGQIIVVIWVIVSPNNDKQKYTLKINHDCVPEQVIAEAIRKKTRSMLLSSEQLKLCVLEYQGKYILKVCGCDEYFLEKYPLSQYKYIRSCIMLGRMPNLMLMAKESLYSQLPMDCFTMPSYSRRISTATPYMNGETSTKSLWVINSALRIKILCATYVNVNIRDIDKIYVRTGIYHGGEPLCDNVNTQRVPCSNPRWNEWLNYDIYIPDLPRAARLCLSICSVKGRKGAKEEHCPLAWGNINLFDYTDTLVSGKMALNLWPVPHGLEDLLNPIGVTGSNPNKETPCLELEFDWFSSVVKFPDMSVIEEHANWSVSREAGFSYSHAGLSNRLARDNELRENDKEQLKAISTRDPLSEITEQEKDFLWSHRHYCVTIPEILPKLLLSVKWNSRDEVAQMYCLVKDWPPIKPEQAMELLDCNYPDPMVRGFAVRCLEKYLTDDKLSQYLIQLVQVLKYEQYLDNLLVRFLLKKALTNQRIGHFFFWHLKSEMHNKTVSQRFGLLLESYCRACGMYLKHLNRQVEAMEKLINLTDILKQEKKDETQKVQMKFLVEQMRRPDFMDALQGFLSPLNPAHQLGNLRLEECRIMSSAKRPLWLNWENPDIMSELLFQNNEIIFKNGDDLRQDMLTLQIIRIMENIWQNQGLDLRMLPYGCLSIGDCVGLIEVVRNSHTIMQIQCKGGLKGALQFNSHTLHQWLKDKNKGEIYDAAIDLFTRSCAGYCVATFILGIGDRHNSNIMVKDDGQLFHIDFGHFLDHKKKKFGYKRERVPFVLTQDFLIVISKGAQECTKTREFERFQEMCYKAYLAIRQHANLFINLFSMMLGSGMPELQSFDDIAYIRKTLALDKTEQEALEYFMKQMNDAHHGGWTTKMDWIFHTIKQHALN
# PI 3-kinase alpha, sequence (P27986 whole entry partner, looked up): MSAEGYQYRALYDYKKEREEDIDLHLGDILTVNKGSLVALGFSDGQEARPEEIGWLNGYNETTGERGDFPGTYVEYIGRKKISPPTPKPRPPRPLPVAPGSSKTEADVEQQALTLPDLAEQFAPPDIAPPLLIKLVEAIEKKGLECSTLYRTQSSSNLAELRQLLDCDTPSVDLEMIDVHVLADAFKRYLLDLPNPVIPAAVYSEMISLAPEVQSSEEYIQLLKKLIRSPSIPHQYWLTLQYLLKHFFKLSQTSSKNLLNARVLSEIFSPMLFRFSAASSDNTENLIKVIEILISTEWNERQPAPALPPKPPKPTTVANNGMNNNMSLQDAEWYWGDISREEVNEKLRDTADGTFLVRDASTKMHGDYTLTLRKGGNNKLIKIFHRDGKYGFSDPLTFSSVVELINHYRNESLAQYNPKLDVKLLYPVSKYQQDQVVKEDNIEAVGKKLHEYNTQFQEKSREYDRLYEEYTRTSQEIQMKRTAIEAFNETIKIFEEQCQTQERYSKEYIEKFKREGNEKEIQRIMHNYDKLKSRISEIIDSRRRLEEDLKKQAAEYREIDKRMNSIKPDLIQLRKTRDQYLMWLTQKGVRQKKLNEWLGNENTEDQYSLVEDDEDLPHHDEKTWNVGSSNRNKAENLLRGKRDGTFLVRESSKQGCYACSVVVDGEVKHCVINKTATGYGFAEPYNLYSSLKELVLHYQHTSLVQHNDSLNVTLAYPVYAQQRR
# Vps34, sequence (Q8NEB9 whole entry): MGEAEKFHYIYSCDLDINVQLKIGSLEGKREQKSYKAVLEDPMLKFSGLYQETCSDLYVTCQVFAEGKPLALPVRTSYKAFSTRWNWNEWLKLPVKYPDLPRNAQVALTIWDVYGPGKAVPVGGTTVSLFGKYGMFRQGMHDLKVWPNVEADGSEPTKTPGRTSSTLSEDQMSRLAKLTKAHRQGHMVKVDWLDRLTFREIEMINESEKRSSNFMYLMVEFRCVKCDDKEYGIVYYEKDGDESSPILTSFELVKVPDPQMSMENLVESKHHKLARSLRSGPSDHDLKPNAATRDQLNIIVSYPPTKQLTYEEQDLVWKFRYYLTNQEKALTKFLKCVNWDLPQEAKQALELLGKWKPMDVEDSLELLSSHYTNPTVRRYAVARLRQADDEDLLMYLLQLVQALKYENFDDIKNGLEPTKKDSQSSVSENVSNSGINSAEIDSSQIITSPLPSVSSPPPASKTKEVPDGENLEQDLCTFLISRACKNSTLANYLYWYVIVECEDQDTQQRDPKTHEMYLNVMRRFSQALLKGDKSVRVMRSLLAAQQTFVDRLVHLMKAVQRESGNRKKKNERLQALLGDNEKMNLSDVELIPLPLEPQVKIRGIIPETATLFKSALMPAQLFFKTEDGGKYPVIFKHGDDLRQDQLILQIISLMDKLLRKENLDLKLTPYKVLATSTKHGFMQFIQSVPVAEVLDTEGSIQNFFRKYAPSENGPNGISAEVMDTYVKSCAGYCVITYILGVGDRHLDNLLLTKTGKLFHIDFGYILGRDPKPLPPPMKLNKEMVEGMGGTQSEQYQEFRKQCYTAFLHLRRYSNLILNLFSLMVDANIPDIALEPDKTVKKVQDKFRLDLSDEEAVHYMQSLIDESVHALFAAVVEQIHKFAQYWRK
# PI 3-kinase gamma, sequence (P48736 whole entry): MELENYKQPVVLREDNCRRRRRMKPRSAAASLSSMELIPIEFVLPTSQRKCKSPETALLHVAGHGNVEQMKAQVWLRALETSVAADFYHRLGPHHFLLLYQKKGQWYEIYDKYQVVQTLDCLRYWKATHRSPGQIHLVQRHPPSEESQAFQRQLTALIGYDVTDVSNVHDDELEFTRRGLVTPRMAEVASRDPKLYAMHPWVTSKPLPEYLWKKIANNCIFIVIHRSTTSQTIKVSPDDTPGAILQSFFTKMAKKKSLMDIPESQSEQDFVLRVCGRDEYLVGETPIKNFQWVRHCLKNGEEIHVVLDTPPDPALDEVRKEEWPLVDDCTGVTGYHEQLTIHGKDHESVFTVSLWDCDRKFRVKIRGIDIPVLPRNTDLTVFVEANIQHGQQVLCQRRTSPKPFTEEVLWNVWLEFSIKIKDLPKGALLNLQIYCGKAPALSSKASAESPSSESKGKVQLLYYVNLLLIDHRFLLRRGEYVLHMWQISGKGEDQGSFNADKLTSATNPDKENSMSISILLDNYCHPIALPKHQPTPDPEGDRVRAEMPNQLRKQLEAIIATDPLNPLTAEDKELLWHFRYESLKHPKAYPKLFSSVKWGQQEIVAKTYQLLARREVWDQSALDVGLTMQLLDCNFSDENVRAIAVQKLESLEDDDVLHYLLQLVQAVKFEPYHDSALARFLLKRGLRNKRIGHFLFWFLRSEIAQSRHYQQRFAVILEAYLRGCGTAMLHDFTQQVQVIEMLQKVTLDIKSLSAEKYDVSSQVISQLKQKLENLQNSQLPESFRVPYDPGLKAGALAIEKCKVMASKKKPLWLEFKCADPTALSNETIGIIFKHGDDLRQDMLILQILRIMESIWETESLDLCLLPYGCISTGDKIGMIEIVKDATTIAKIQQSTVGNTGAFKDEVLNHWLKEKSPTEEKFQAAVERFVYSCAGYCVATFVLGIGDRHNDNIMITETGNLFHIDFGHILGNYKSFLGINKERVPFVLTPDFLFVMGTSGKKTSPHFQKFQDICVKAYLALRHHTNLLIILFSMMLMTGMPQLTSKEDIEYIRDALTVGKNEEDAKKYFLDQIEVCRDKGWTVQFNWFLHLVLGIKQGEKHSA
# PI 3-kinase beta, sequence (P42338 whole entry, looked up): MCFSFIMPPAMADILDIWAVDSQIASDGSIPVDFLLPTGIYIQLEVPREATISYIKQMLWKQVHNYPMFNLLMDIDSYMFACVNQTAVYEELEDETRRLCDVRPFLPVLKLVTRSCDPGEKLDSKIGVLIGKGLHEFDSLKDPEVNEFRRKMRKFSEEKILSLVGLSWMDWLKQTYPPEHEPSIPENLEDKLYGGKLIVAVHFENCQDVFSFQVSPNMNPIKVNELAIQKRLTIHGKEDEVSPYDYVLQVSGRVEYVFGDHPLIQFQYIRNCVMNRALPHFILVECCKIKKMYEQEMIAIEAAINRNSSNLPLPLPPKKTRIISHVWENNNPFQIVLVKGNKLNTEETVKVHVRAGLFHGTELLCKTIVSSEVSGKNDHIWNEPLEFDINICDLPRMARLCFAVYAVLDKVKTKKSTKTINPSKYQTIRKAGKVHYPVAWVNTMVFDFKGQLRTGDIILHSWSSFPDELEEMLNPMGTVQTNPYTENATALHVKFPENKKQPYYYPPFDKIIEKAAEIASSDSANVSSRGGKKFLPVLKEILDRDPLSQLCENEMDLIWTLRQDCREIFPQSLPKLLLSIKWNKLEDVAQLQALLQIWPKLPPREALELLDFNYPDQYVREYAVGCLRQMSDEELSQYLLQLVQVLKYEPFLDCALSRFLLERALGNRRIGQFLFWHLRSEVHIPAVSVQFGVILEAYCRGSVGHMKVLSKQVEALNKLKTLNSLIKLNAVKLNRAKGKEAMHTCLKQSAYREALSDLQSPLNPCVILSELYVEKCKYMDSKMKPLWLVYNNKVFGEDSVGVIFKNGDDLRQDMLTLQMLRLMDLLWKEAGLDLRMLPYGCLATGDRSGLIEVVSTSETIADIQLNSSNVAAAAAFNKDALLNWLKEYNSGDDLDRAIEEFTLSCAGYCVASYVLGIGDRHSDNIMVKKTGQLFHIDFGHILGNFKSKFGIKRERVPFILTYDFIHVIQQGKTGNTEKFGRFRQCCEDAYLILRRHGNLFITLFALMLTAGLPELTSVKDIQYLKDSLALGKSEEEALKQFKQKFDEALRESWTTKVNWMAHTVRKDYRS
# PI 3-kinase beta, sequence (P27986 whole entry partner, looked up): as the sequence (P27986 whole entry partner, looked up) above
Structure (SMILES),activity in assay E [1],IC50 [2],IC50 [3],IC50 [4],IC50 [5],IC50 [6],IC50 [7],IC50 [8]
"Cc1noc(-c2cc(-c3cc(S(=O)(=O)NCC(C)(C)O)ccc3C(F)(F)F)cnc2N)n1 [3-(6-amino-5-(3-methyl-1,2,4-oxadiazol-5-yl)pyridin-3-yl)-N-(2-hydroxy-2-methylpropyl)-4-(trifluoromethyl)benzenesulfonamide]",inactive,–,–,–,–,–,–,–
"Cc1noc(-c2cc(-c3cc(C(F)(F)F)cc(S(=O)(=O)NCC(C)(C)O)c3)cnc2N)n1 [3-(6-amino-5-(3-methyl-1,2,4-oxadiazol-5-yl)pyridin-3-yl)-N-(2-hydroxy-2-methylpropyl)-5-(trifluoromethyl)benzenesulfonamide]",inactive,–,–,–,–,–,–,–
"Cc1cc(-c2cnc(N)c(-c3nc(C)no3)c2)cc(S(=O)(=O)NCC(C)(C)O)c1 [3-(6-amino-5-(3-methyl-1,2,4-oxadiazol-5-yl)pyridin-3-yl)-N-(2-hydroxy-2-methylpropyl)-5-methylbenzenesulfonamide]",inactive,–,–,–,–,–,–,–
"Cc1ccc(S(=O)(=O)N[C@H]2CC[C@H](O)CC2)cc1-c1cnc(N)c(-c2cnn(C)c2)c1 [Example 4.1, trans 3-(6-Amino-5-(1-methyl-1H-pyrazol-4-yl)pyridin-3-yl)-N-(4-hydroxycyclohexyl)-4-methylbenzene-sulfonamide]",–,9500 nM,1600 nM,6600 nM,3900 nM,280 nM,–,–
"Cc1cc(-c2cc(-c3cc(S(=O)(=O)N[C@H]4CC[C@H](O)CC4)ccc3C)cnc2N)ccn1 [Example 4.3, trans 3-(2-Amino-2′-methyl-[3,4′-bipyridin]-5-yl)-N-(4-hydroxycyclohexyl)-4-methyl-benzenesulfonamide]",–,7300 nM,7200 nM,> 10000 nM,1700 nM,260 nM,–,–
"Cc1nnc(-c2cc(-c3cc(S(=O)(=O)NCCC(C)(C)O)ccc3C)cnc2N)o1 [Example 5.6, 3-(6-Amino-5-(5-methyl-1,3,4-oxa-diazol-2-yl)pyridin-3-yl)-N-(3-hydroxy-3-methylbutyl)-4-methylbenzenesulfon-amide]",–,> 10000 nM,4500 nM,> 10000 nM,7800 nM,700 nM,–,–
"Cc1cc(-c2cc(-c3cc(S(=O)(=O)N4CC[C@H](N(C)C)C4)ccc3C)cnc2N)on1 [Example 19.22, (S)-5-(5-((3-(dimethylamino)pyrrolidin-1-yl)sulfonyl)-2-methylphenyl)-3-(3-methylisoxazol-5-yl)pyridin-2-amine acetic acid salt]",–,–,5800 nM,> 10000 nM,8600 nM,2000 nM,–,–
"Cc1ccc(S(=O)(=O)NC2CC3(CC(O)C3)C2)cc1-c1cnc(N)c(-c2cn(C)nc2C)c1 (stereo not drawn) [Example 26, 3-(6-Amino-5-(1,3-dimethyl-1H-pyrazol-4-yl)pyridin-3-yl)-N-(6-hydroxyspiro[3.3]heptan-2-yl)-4-methylbenzenesulfonamide]",–,320 nM,3000 nM,> 10000 nM,3400 nM,220 nM,–,–
"Cc1ncc(-c2cc(-c3cc(S(=O)(=O)NC4CC5(CC(O)C5)C4)ccc3C)cnc2N)s1 (stereo not drawn) [Example 28, 3-(6-Amino-5-(2-methylthiazol-5-yl)pyridin-3-yl)-N-(6-hydroxyspiro[3.3]heptan-2-yl)-4-methylbenzenesulfonamide]",–,–,450 nM,2000 nM,680 nM,50 nM,–,–
"Cc1cccc(NS(=O)(=O)c2ccc(C)c(-c3cnc(N)c(-c4cnn(C)c4)c3)c2)n1 [Example 30, 3-(6-Amino-5-(1-methyl-1H-pyrazol-4-yl)pyridin-3-yl)-4-methyl-N-(6-methylpyridin-2-yl)benzenesulfonamide]",–,4700 nM,1500 nM,> 10000 nM,3100 nM,330 nM,–,–
"Cc1noc(-c2cc(-c3cc(S(=O)(=O)N[C@@H]4CCNC(=O)C4)ccc3C)cnc2N)n1 [Example 37.25, (R)-3-(6-Amino-5-(3-methyl-1,2,4-oxadiazol-5-yl)pyridin-3-yl)-4-methyl-N-(2-oxopiperidin-4-yl)benzenesulfonamide]",–,> 10000 nM,> 10000 nM,> 10000 nM,> 10000 nM,3800 nM,–,–
"Cc1noc(-c2cc(-c3cc(S(=O)(=O)NCCN)ccc3C)cnc2N)n1 [Example 37.29, 3-(6-Amino-5-(3-methyl-1,2,4-oxadiazol-5-yl)pyridin-3-yl)-N-(2-aminoethyl)-4-methylbenzenesulfonamide]",–,> 10000 nM,910 nM,> 10000 nM,7100 nM,910 nM,–,–
"Cc1cc(-c2cc(-c3cc(S(=O)(=O)NCC(F)(F)F)ccc3C)cnc2N)on1 [Example 39, 3-(6-Amino-5-(3-methylisoxazol-5-yl)pyridin-3-yl)-4-methyl-N-(2,2,2-trifluoroethyl)benzenesulfonamide]",–,–,3700 nM,> 10000 nM,1300 nM,450 nM,–,–
"Cc1ccc(S(=O)(=O)N[C@H]2CC[C@H](O)CC2)cc1-c1cnc(N)c(-c2nc(CC(F)(F)F)no2)c1 [Example 78, trans-3-(6-Amino-5-(3-(2,2,2-trifluoroethyl)-1,2,4-oxadiazol-5-yl)pyridin-3-yl)-N-((1r,4r)-4-hydroxycyclohexyl)-4-methylbenzenesulfonamide]",–,–,2500 nM,> 10000 nM,490 nM,–,> 10000 nM,–
"Cc1ncc(-c2cc(-c3cc(S(=O)(=O)N4CC(CO)C4)ccc3C)cnc2N)s1 [Example 83.1, (1-((3-(6-Amino-5-(2-methylthiazol-5-yl)pyridin-3-yl)-4-methylphenyl)sulfonyl)azetidin-3-yl)methanol]",–,–,2500 nM,–,–,400 nM,–,1300 nM
"Cc1ncc(-c2cc(-c3cc(S(=O)(=O)NCC4COC4)ccc3C)cnc2N)s1 [Example 83.2, 3-(6-Amino-5-(2-methylthiazol-5-yl)pyridin-3-yl)-4-methyl-N-(oxetan-3-ylmethyl)benzenesulfonamide]",–,–,6200 nM,6200 nM,2400 nM,400 nM,–,–
"Cc1ncc(-c2cc(-c3cc(S(=O)(=O)NCC4(O)COC4)ccc3C)cnc2N)s1 [Example 83.3, 3-(6-amino-5-(2-methylthiazol-5-yl)pyridin-3-yl)-N-((3-hydroxyoxetan-3-yl)methyl)-4-methylbenzenesulfonamide]",–,–,3000 nM,9700 nM,1700 nM,570 nM,–,900 nM
"Cc1ncc(-c2cc(-c3cc(S(=O)(=O)NCC(C)(C)CO)ccc3C)cnc2N)s1 [Example 83.4, 3-(6-Amino-5-(2-methylthiazol-5-yl)pyridin-3-yl)-N-(3-hydroxy-2,2-dimethylpropyl)-4-methylbenzenesulfonamide]",–,–,2100 nM,2200 nM,1300 nM,350 nM,–,–
"Cc1ncc(-c2cc(-c3cc(S(=O)(=O)NCCO)ccc3C)cnc2N)s1 [Example 83.5, 3-(6-Amino-5-(2-methylthiazol-5-yl)pyridin-3-yl)-N-(2-hydroxyethyl)-4-methylbenzenesulfonamide]",–,–,3400 nM,5200 nM,2800 nM,430 nM,–,–
"Cc1ncc(-c2cc(-c3cc(S(=O)(=O)N[C@H]4CCC[C@H](O)C4)ccc3C)cnc2N)o1 [Example 112, 3-(6-amino-5-(2-methyloxazol-5-yl)pyridin-3-yl)-N-((1S,3S)-3-hydroxycyclohexyl)-4-methylbenzenesulfonamide]",–,–,660 nM,3500 nM,730 nM,140 nM,–,–
"Cc1noc(-c2cc(-c3cc(S(=O)(=O)NCC(C)(C)O)c(C)cc3F)cnc2N)n1 [Example 113, 5-(6-amino-5-(3-methyl-1,2,4-oxadiazol-5-yl)pyridin-3-yl)-4-fluoro-N-(2-hydroxy-2-methylpropyl)-2-methylbenzenesulfonamide]",–,–,8850 nM,> 10000 nM,–,1150 nM,–,–
"Cc1ncc(-c2cc(-c3cc(S(=O)(=O)NCC4(O)CC4)ccc3C)cnc2N)o1 [Example 114.1, 3-(6-amino-5-(2-methyloxazol-5-yl)pyridin-3-yl)-N-((1-hydroxycyclopropyl)methyl)-4-methylbenzenesulfon-amide]",–,–,–,3400 nM,4500 nM,250 nM,–,–
"Cc1ncc(-c2cc(-c3cc(S(=O)(=O)NC(CO)C(F)(F)F)ccc3C)cnc2N)o1 (stereo not drawn) [Example 114.2, 3-(6-amino-5-(2-methyloxazol-5-yl)pyridin-3-yl)-4-methyl-N-(1,1,1-trifluoro-3-hydroxypropan-2-yl)benzenesulfonamide]",–,–,2800 nM,4400 nM,2300 nM,410 nM,–,–
"Cc1ncc(-c2cc(-c3cc(S(=O)(=O)NCC4(O)CCOCC4)ccc3C)cnc2N)o1 [Example 114.3, 3-(6-amino-5-(2-methyloxazol-5-yl)pyridin-3-yl)-N-((4-hydroxytetrahydro-2H-pyran-4-yl)methyl)-4-methylbenzenesulfon-amide]",–,–,8400 nM,> 10000 nM,8100 nM,590 nM,–,–
"Cc1ncc(-c2cc(-c3cc(S(=O)(=O)NC4CCC(O)(C(F)(F)F)C4)ccc3C)cnc2N)o1 (stereo not drawn) [Example 114.4, 3-(6-amino-5-(2-methyloxazol-5-yl)pyridin-3-yl)-N-(3-hydroxy-3-(trifluoromethyl)cyclo-pentyl)-4-methylbenzenesulfon-amide]",–,–,1200 nM,1200 nM,630 nM,80 nM,–,–

# Reference: US10112926B2 (priority 2014, dated 2018)
